Results on twelve compounds are retold here after ChEMBL document CHEMBL1201862, “PubChem BioAssay data set” (2004).

As usually defined, the GI50 is the concentration giving 50% growth inhibition.

Experiment in all cases: DTP human tumour cell line panel, 48 h
In test [1] the test system is NCI-H226.
For test [2], the system named is OVCAR-8.
The test system of test [3] is NCI-H522.
In test [4] the test system is KM12.
Test [5] concerns SK-MEL-28.
For test [6], the system named is CAKI-1.
Test [7] deals with DU-145.
Test [8] deals with HCT-15.
Test [9] concerns A498.
Test [10] has as its system HCC 2998.
The subject of test [11] is U-251.
Test [12] concerns NCI-H460.
For test [13], the system named is IGROV-1.
The subject of test [14] is NCI-H23.
Test [15] deals with OVCAR-3.
Test [16] relates to SNB-75.
Test [17] has as its system SW-620.
Test [18] relates to ACHN.
Test [19] has as its system MCF7.
The subject of test [20] is A549.

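Interpolation was linear, between the two tested concentrations surrounding the appropriate level; five concentrations were tested over 48 hours in 96-well plates. Abbreviation: GI50, concentration required for 50% inhibition of growth.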 Activity calls are given as the source filed them. Rule as the data show it: active = GI50 up to about 1.1 µM and inactive = higher. A value given as a limit tells only on which side of the number the result lay.

On to `O=C1c2ccccc2C(=O)N1CC(CN1C(=O)c2ccccc2C1=O)(C(=O)OCc1ccccc1)C(=O)OCc1ccccc1`, for which the GI50 in test [1], in [2], in test [3], in test [4], in test [5] and in [6] was > 100 µM (inactive) in each case. Further, the GI50 is > 100 µM (inactive) in [7]; over 100 µM in [8]; > 100 µM (inactive) in test [9]; > 100 µM (inactive) in test [10]; > 100 µM (inactive) in test [11]; > 100 µM (inactive) in test [12]. In addition, the GI50 in test [13], in [14], in [15] and in [16] was > 100 µM (inactive) throughout.

In the case of `N#Cc1c(NC(=S)Nc2ccc(Cl)cc2)sc2c1CCCC2`, the GI50 in test [1] was > 100 µM (inactive); in test [17], > 100 µM (inactive); in [2], 14.8 µM (inactive); in test [3], 25.8 µM (inactive); in [4], > 100 µM (inactive); in test [5], > 100 µM (inactive). For the same compound, the GI50 was > 100 µM (inactive) in test [6]; > 100 µM (inactive) in test [7]; > 100 µM (inactive) in test [18]; over 100 µM in [8]; > 100 µM (inactive) in [9]; 64.1 µM (inactive) in test [10]. Further, the GI50 in test [11], in test [13], in test [19], in [14], in [15] and in test [16] was > 100 µM (inactive) in each case.

For the compound `COc1cc(/C=C/C(=O)O)ccc1C(=O)O/C=C/c1ccccc1`, the GI50 in test [20] was > 100 µM (inactive); in [1], > 100 µM (inactive); in test [17], > 100 µM (inactive); in test [2], > 67.5 µM (inactive); in test [3], > 61.9 µM (inactive); in [4] it was > 100 µM (inactive). The GI50 is > 100 µM (inactive) in test [5]; 99.8 µM in test [8]; > 85.3 µM (inactive) in [9]; > 100 µM (inactive) in test [11]; > 100 µM (inactive) in test [12]; > 100 µM (inactive) in test [13]. Further, the GI50 in test [19] was 73.5 µM (inactive); in [14] it was > 100 µM (inactive); in [15] it was > 100 µM (inactive); in test [16], 67 µM (inactive).

Regarding `COc1ccc(C(O)(c2ccccc2)c2nccc3ccccc23)cc1` (centres undefined), the GI50 in test [20] is 7.19 µM (inactive); in [2] it was 18.1 µM (inactive); in test [3], 6.35 µM (inactive); in test [4], 5.71 µM (inactive); in [5], 41.4 µM (inactive); in test [6], 8 µM (inactive). For the same compound, the GI50 is 6.22 µM (inactive) in test [7]; 12.3 µM (inactive) in test [18]; 4.58 µM in test [8]; 11.7 µM (inactive) in test [11]; 5.82 µM (inactive) in test [12]; 9.86 µM (inactive) in test [13]. In addition, the GI50 in test [19] was 4.32 µM (inactive); in test [14], 16.6 µM (inactive); in test [15], 2.48 µM (inactive).

In the case of `NC(=O)Nc1ccc(C(=O)NCCCNC(=O)c2ccc(NC(N)=O)cc2)cc1`, the GI50 in test [20], in [1], in test [17], in test [2], in test [3] and in test [4] was > 100 µM (inactive) in each case. Moreover, the GI50 was > 100 µM (inactive) in [5]; > 100 µM (inactive) in [6]; > 100 µM (inactive) in test [7]; > 100 µM (inactive) in [18]; over 100 µM in [8]; > 100 µM (inactive) in test [9]. For the same compound, the GI50 in test [10], in test [11], in test [12], in test [13], in test [19] and in test [14] was > 100 µM (inactive) throughout. The GI50 in [16] was > 100 µM (inactive).

As for `CCOC(=O)C1(C(=O)OCC)CSC1`, the GI50 in [20], in test [1], in test [17], in test [2], in test [3] and in test [4] was > 100 µM (inactive) each time. Also, the GI50 was > 100 µM (inactive) in [5]; > 100 µM (inactive) in [7]; > 100 µM (inactive) in test [18]; over 100 µM in [8]; 42 µM (inactive) in test [9]; 0.192 µM (active) in [10]. The GI50 was > 100 µM (inactive) in [11]; 0.263 µM (active) in test [12]; > 100 µM (inactive) in test [19]; > 100 µM (inactive) in [14]; > 100 µM (inactive) in test [15]; > 100 µM (inactive) in [16].

Consider `CCNC(=O)N(CC)CN(CC)C(=O)NCC`, for which the GI50 in [20], in [1], in test [17], in [2], in test [3] and in [4] was > 100 µM (inactive) throughout. Further, the GI50 in [5] was > 100 µM (inactive); in test [6], > 100 µM (inactive); in [18], > 100 µM (inactive); in test [8] it was over 100 µM; in test [9], > 100 µM (inactive); in [10], > 100 µM (inactive). Also, the GI50 in test [15] and in test [16] was > 100 µM (inactive) throughout.

Regarding `O=C1C2=C(C3=NCCc4c[nH]c1c43)C1(C=C(Br)C(O)C(Br)=C1)CCN2` (centres undefined), the GI50 in test [20] is 3.15 µM (inactive); in test [1] it was 3.4 µM (inactive); in test [17] it was 0.541 µM (active); in test [2], 0.647 µM (active); in test [3] it was 0.284 µM (active); in test [4], 1.82 µM (inactive). Besides, the GI50 is 7.69 µM (inactive) in test [5]; 4.4 µM (inactive) in test [6]; 1.16 µM in test [8]; 9.95 µM (inactive) in [9]; 1.18 µM (inactive) in test [10]; 2.26 µM (inactive) in [11]. Moreover, the GI50 in test [12] was 2.33 µM (inactive); in test [13] it was 0.881 µM (active); in test [19], 0.433 µM (active); in test [14], 0.792 µM (active); in test [15] it was 1.03 µM (active); in [16], 10 µM (inactive).

With `CC(C)C1OC(=O)/C=C/C=C/C=C/C=C/C=C/CC(O)C(C)C(O)CC(O)CC(O)CC(O)CC(O)CC(O)CC(O)/C=C/C1C` (centres undefined), the GI50 in test [20], in test [17], in test [2], in [3], in test [4] and in [5] was > 100 µM (inactive) in each case. Moreover, the GI50 is > 100 µM (inactive) in test [18]; over 100 µM in test [8]; > 100 µM (inactive) in [9]; > 100 µM (inactive) in [10]; > 100 µM (inactive) in test [11]; > 100 µM (inactive) in test [12]. In addition, the GI50 in [13], in [19], in test [14], in test [15] and in test [16] was > 100 µM (inactive) each time.

For the compound `CCCNC1=NC(C)=CSC(Nc2ccccc2)=C1C#N`, the GI50 in test [20], in test [17], in [2], in test [3], in test [4] and in [5] was > 100 µM (inactive) throughout. Moreover, the GI50 in test [6] was > 100 µM (inactive); in test [7] it was > 100 µM (inactive); in test [18] it was > 100 µM (inactive); in test [8] it was over 100 µM; in test [9], > 100 µM (inactive); in [11], > 100 µM (inactive). Moreover, the GI50 in test [19], in [14] and in test [15] was > 100 µM (inactive) each time.

`COc1ccc2c(c1)CCCc1cn[nH]c1-2`: the GI50 in test [20], in test [1], in [17], in test [2], in [3] and in [4] was > 100 µM (inactive) each time. Moreover, the GI50 in [5] was > 100 µM (inactive); in test [6], 77.8 µM (inactive); in test [8], over 100 µM; in [9], > 100 µM (inactive); in test [10] it was > 100 µM (inactive); in test [11], > 100 µM (inactive). The GI50 in test [12], in test [19], in test [14], in test [15] and in test [16] was > 100 µM (inactive) in each case.

Take `ICC1CCCO1` (centres undefined): the GI50 in test [20], in [1], in [17], in [2], in test [4] and in [5] was > 100 µM (inactive) in each case. In addition, the GI50 in test [6] is > 100 µM (inactive); in test [18], > 100 µM (inactive); in [8], over 100 µM; in [9] it was > 100 µM (inactive); in [10] it was > 100 µM (inactive); in [11] it was > 100 µM (inactive). The GI50 in test [12], in test [13], in [14] and in test [16] was > 100 µM (inactive) throughout.
